Experimental data taken from patent US20230126447A1, “OCULAR DRUG DEPOT FOR COMPLEMENT-MEDIATED DISORDERS” (priority 2020, published 2023).
“Also recorded” adds a separate entry of the source. Like-named read-outs stand apart in the source and are kept apart here.

Experiment: Ocular tissue and plasma pharmacokinetics, 15 mg/kg single and BID oral, Dutch Belted rabbits (Example 3/5)
Assay type: in vivo
Settings: for MRTlast / Tlast / MRT inf / half-life: Choroid-RPE; for concentration at 1 h / concentration at 6 h / concentration at 168 h / concentration at 24 h / concentration at 96 h / concentration at 240 h / concentration at 0 h / MRT inf / half-life: Dutch Belted, rabbit
Protocol: Study design including group designation and dose levels are outlined in Table 4. […] Fifteen Dutch Belted and 5 New Zealand White rabbits were used as un-dosed controls. […] The dose volume was 5 mL/kg/dose for all groups. Safety was assessed with toxicological and ophthalmic examinations including slit lamp biomicroscopy, indirect ophthalmoscopy, rebound tonometry, and ultrasonic corneal pachymetry.
Analyst® software (Version 1.6.2) was used to capture the LC-MS/MS data and integrate the peak areas. Calibration standards and QCs were prepared in a blank solution of 75%:25% acetonitrile:water (v:v), ranging from 10 ng/mL to 10,000 ng/mL. Matrix matched standard and QC samples were prepared by mixing 2 μL of standard or QC sample above with 18 μL of appropriate ocular tissue or plasma. The final calibration standards ranged from 1 ng/mL to 1000 ng/mL. All plasma, retina, choroid-RPE, optic nerve, and vitreous humor samples were analyzed in a single run. Iris-ciliary body samples were analyzed in two runs due to a need for sample dilution. […] Dilution QCs were prepared at 5000 ng/mL where appropriate. Two sets of standards were used to bracket the analytical run at the beginning and end of the run. Three sets of QCs were included the analytical runs. All concentrations in ocular matrices are reported as ng/g based on the assumed density of 1 g/mL.
1, 6, 24, 96, 168, and 240 hours post-dose on Day 15, with the eyes collected at the same time as blood sampling. A single blood sample was taken from Groups 4 and 5 at sacrifice. Plasma, vitreous humor (VH), retina, choroid-retina pigmented epithelium (Choroid-RPE), optic nerve (ON), and iris-ciliary body (I-CB) were analyzed by LC-MS/MS to quantify test article concentrations. The lower limit of quantitation (LLOQ) in plasma and vitreous humor was 1.0 ng/mL. The LLOQ was 6.0 ng/g in retina, Choroid-RPE, and I-CB and the optic nerve LLOQ was 15 ng/g, assuming tissue density of 1 g/mL where relevant.
Study design including group designation and dose levels are outlined in Table 18.

[1] = DB rabbit, 15 mg/kg BID, Day 15
[2] = DB rabbit, 15 mg/kg single dose, Day 1
[3] = DB rabbit, 15 mg/kg BID oral, Day 15, 24 h
[4] = DB rabbit, 15 mg/kg BID oral, Day 15, 96 h
[5] = DB rabbit, 15 mg/kg BID oral, Day 15, 168 h
[6] = DB rabbit, 15 mg/kg BID oral, Day 15, 240 h
[7] = DB rabbit, 15 mg/kg single oral dose, Day 1, 0 h
[8] = DB rabbit, 15 mg/kg single oral dose, Day 1, 0 h, 15 mg/kg
[9] = DB rabbit, 15 mg/kg single oral dose, Day 1, 24 h
[10] = DB rabbit, 15 mg/kg single oral dose, Day 1, 96 h
[11] = DB rabbit, 15 mg/kg single oral dose, Day 1, 96 h, 15 mg/kg
[12] = DB rabbit, 15 mg/kg single oral dose, Day 1, 168 h
[13] = DB rabbit, 15 mg/kg single oral dose, Day 1, 240 h
[14] = DB rabbits, Day 1, 15 mg/kg single dose, 0 hr
[15] = choroid-RPE, po, 15 mg/kg, DB rabbit, 15 mg/kg BID, Day 15
[16] = choroid-RPE, po, 15 mg/kg, DB rabbit, 15 mg/kg single dose, Day 1

What does the source list for `CC(=O)c1nn(CC(=O)N2C[C@H](F)C[C@H]2C(=O)Nc2cccc(Br)n2)c2ccc(-c3cnc(C)nc3)cc12` [Compound 1, (2S,4R)-1-(2-(3-Acetyl-5-(2-methylpyrimidin-5-yl)-1H-indazol-1-yl)acetyl)-N-(6-bromopyridin-2-yl)-4-fluoropyrrolidine-2-carboxamide]?
MRTlast [1]: 68.5 h; Tlast [1]: 240 h; MRTlast [2]: 49.7 h; Tlast [2]: 240 h; Vitreous humor concentration after 24 hours post-dose (non-detectable) (DB rabbit, 15 mg/kg BID for 14 days): < 1.0 ng/mL; Mean Aqueous Humor concentration (DB rabbit, 15 mg/kg BID oral, Day 15, 0 h): BLQ^a; Mean Aqueous Humor concentration (DB rabbit, 15 mg/kg BID oral, Day 15, 6 h): BLQ^a; Mean Aqueous Humor concentration [3]: BLQ^a; Mean Vitreous Humor concentration [3]: BLQ^a; Mean plasma concentration (DB rabbit, 15 mg/kg BID oral, Day 15, 24 h, 15 mg/kg): 5.6 ng/mL; Mean Aqueous Humor concentration [4]: BLQ^a; Mean Vitreous Humor concentration [4]: BLQ^a; Mean Aqueous Humor concentration [5]: BLQ^a; Mean Vitreous Humor concentration [5]: BLQ^a; Mean plasma concentration [5]: BLQ^a; Mean Aqueous Humor concentration [6]: BLQ^a; Mean Vitreous Humor concentration [6]: BLQ^a; Mean plasma concentration [6]: BLQ^a; Mean Aqueous Humor concentration [7]: BLQ^a; Mean Vitreous Humor concentration [7]: BLQ^a; Mean plasma concentration [7]: BLQ^a; Mean Choroid-RPE concentration [8]: BLQ^a and BLQ; Mean Iris-Ciliary Body concentration [8]: BLQ^a and BLQ; Mean retina concentration [8]: BLQa and BLQ^a and BLQ; Mean retina concentration (DB rabbit, 15 mg/kg single oral dose, Day 1, 6 h, 15 mg/kg): 30 ng/g; Mean Aqueous Humor concentration [9]: BLQ^a; Mean Vitreous Humor concentration [9]: BLQ^a; Mean retina concentration (DB rabbit, 15 mg/kg single oral dose, Day 1, 24 h, 15 mg/kg): 25 ng/g; Mean Aqueous Humor concentration [10]: BLQ^a; Mean Vitreous Humor concentration [10]: BLQ^a; Mean plasma concentration [11]: no drug was detectable; also recorded: BLQ^a; Mean retina concentration [11]: BLQ^a and BLQ; Mean Vitreous Humor concentration [12]: BLQ^a; Mean plasma concentration [12]: BLQ^a; Mean retina concentration (DB rabbit, 15 mg/kg single oral dose, Day 1, 168 h, 15 mg/kg): BLQ^a and BLQ; Mean Aqueous Humor concentration [13]: BLQ^a; Mean Vitreous Humor concentration [13]: BLQ^a; Mean plasma concentration [13]: BLQ^a; Mean retina concentration (DB rabbit, 15 mg/kg single oral dose, Day 1, 240 h, 15 mg/kg): BLQ^a and BLQ; Accumulation of the drug in Choroid-RPE after repeat dosing (DB rabbit, Day 1 to Day 15): ~6 fold; Mean Choroid-RPE concentration [14]: BLQ; Mean retina concentration [14]: BLQ; Mean retina concentration (DB rabbits, Day 1, 15 mg/kg single dose, 96 hr): BLQ; Mean retina concentration (DB rabbits, Day 1, 15 mg/kg single dose, 168 hr): BLQ; Mean retina concentration (DB rabbits, Day 1, 15 mg/kg single dose, 240 hr): BLQ; concentration at 1 h (aqueous humor, po, 15 mg/kg, DB rabbit, 15 mg/kg BID oral, Day 15, 1 h, read-out: Mean Aqueous Humor concentration): 10.6 ng/mL; concentration at 1 h (aqueous humor, po, 15 mg/kg, DB rabbit, 15 mg/kg single oral dose, Day 1, 1 h, read-out: Mean Aqueous Humor concentration): 3.8 ng/mL; concentration at 6 h (aqueous humor, po, 15 mg/kg, DB rabbit, 15 mg/kg single oral dose, Day 1, 6 h, read-out: Mean Aqueous Humor concentration): 45.3 ng/mL; concentration at 168 h (aqueous humor, po, 15 mg/kg, DB rabbit, 15 mg/kg single oral dose, Day 1, 168 h, read-out: Mean Aqueous Humor concentration): 11.1 ng/mL; concentration at 1 h (choroid-RPE, oral, 15 mg/kg, DB rabbits, Day 1, 15 mg/kg single dose, 1 hr, read-out: Mean Choroid-RPE Concentration): 917 ng/g; concentration at 6 h (choroid-RPE, oral, 15 mg/kg, DB rabbits, Day 1, 15 mg/kg single dose, 6 hr, read-out: Mean Choroid-RPE Concentration): 866 ng/g; concentration at 24 h (choroid-RPE, oral, 15 mg/kg, DB rabbits, Day 1, 15 mg/kg single dose, 24 hr, read-out: Mean Choroid-RPE Concentration): 311 ng/g; concentration at 96 h (choroid-RPE, oral, 15 mg/kg, DB rabbits, Day 1, 15 mg/kg single dose, 96 hr, read-out: Mean Choroid-RPE Concentration): 77.5 ng/g; concentration at 168 h (choroid-RPE, oral, 15 mg/kg, DB rabbits, Day 1, 15 mg/kg single dose, 168 hr, read-out: Mean Choroid-RPE Concentration): 56.3 ng/g; concentration at 240 h (choroid-RPE, oral, 15 mg/kg, DB rabbits, Day 1, 15 mg/kg single dose, 240 hr, read-out: Mean Choroid-RPE Concentration): 28.1 ng/g; concentration at 0 h (choroid-RPE, oral, 15 mg/kg, DB rabbits, Day 15, 15 mg/kg BID, 0 hr, read-out: Mean Choroid-RPE Concentration): 2460 ng/g; concentration at 1 h (choroid-RPE, oral, 15 mg/kg, DB rabbits, Day 15, 15 mg/kg BID, 1 hr, read-out: Mean Choroid-RPE Concentration): 4870 ng/g; concentration at 6 h (choroid-RPE, oral, 15 mg/kg, DB rabbits, Day 15, 15 mg/kg BID, 6 hr, read-out: Mean Choroid-RPE Concentration): 3200 ng/g; concentration at 24 h (choroid-RPE, oral, 15 mg/kg, DB rabbits, Day 15, 15 mg/kg BID, 24 hr, read-out: Mean Choroid-RPE Concentration): 1960 ng/g; concentration at 96 h (choroid-RPE, oral, 15 mg/kg, DB rabbits, Day 15, 15 mg/kg BID, 96 hr, read-out: Mean Choroid-RPE Concentration): 866 ng/g; concentration at 168 h (choroid-RPE, oral, 15 mg/kg, DB rabbits, Day 15, 15 mg/kg BID, 168 hr, read-out: Mean Choroid-RPE Concentration): 485 ng/g; concentration at 240 h (choroid-RPE, oral, 15 mg/kg, DB rabbits, Day 15, 15 mg/kg BID, 240 hr, read-out: Mean Choroid-RPE Concentration): 340 ng/g; MRT inf [15]: 125 h; half-life [15]: 107 h; MRT inf [16]: 81.8 h; half-life [16]: 98.4 h; concentration at 0 h (choroid-RPE, po, 15 mg/kg, DB rabbit, 15 mg/kg BID oral, Day 15, 0 h, read-out: Mean Choroid-RPE concentration): 2460 ng/g; concentration at 1 h (choroid-RPE, po, 15 mg/kg, DB rabbit, 15 mg/kg BID oral, Day 15, 1 h, read-out: Mean Choroid-RPE concentration): 4870 ng/g; concentration at 6 h (choroid-RPE, po, 15 mg/kg, DB rabbit, 15 mg/kg BID oral, Day 15, 6 h, read-out: Mean Choroid-RPE concentration): 3200 ng/g; concentration at 24 h (choroid-RPE, po, 15 mg/kg, DB rabbit, 15 mg/kg BID oral, Day 15, 24 h, read-out: Mean Choroid-RPE concentration): 1960 ng/g; concentration at 96 h (choroid-RPE, po, 15 mg/kg, DB rabbit, 15 mg/kg BID oral, Day 15, 96 h, read-out: Mean Choroid-RPE concentration): 866 ng/g; concentration at 168 h (choroid-RPE, po, 15 mg/kg, DB rabbit, 15 mg/kg BID oral, Day 15, 168 h, read-out: Mean Choroid-RPE concentration): 485 ng/g; concentration at 240 h (choroid-RPE, po, 15 mg/kg, DB rabbit, 15 mg/kg BID oral, Day 15, 240 h, read-out: Mean Choroid-RPE concentration): 340 ng/g; concentration at 1 h (choroid-RPE, po, 15 mg/kg, DB rabbit, 15 mg/kg single oral dose, Day 1, 1 h, read-out: Mean Choroid-RPE concentration): 917 ng/g; concentration at 6 h (choroid-RPE, po, 15 mg/kg, DB rabbit, 15 mg/kg single oral dose, Day 1, 6 h, read-out: Mean Choroid-RPE concentration): 866 ng/g; concentration at 24 h (choroid-RPE, po, 15 mg/kg, DB rabbit, 15 mg/kg single oral dose, Day 1, 24 h, read-out: Mean Choroid-RPE concentration): 311 ng/g; concentration at 96 h (choroid-RPE, po, 15 mg/kg, DB rabbit, 15 mg/kg single oral dose, Day 1, 96 h, read-out: Mean Choroid-RPE concentration): 77.5 ng/g; concentration at 168 h (choroid-RPE, po, 15 mg/kg, DB rabbit, 15 mg/kg single oral dose, Day 1, 168 h, read-out: Mean Choroid-RPE concentration): 56.3 ng/g; concentration at 240 h (choroid-RPE, po, 15 mg/kg, DB rabbit, 15 mg/kg single oral dose, Day 1, 240 h, read-out: Mean Choroid-RPE concentration): 28.1 ng/g
